Assay results taken from patent publication US8871681B2, “Herbicidal compositions comprising 4-amino-3-chloro-5-fluoro-6-(4-chloro-2-fluoro-3-methoxyphenyl) pyridine-2-carboxylic acid or a derivative thereof and certain sulfonylureas” (Dow AgroSciences LLC, priority 2012, dated 2014).

What was measured:
[1] = system: FIMMI (Fimbristylis miliacea, globe fringerush); experiment: In-water applied weed control, transplanted paddy rice, greenhouse (Example II); assay type: in vivo, Fimbristylis miliacea (L.) Vahl
Method: (§1) Weed seeds or nutlets of the desired test plant species were planted in puddled soil (mud) prepared by mixing a shredded, non-sterilized mineral soil (50.5 percent silt, 25.5 percent clay, and 24 percent sand, with a pH of about 7.6 and an organic matter content of about 2.9 percent) and water at a 1:1 volumetric ratio. The prepared mud was dispensed in 365 mL aliquots into 16-ounce (oz.) non-perforated plastic pots with a surface area of 86.59 square centimeters (cm^2) leaving a headspace of 3 centimeters (cm) in each pot. Rice seeds were planted in Sun Gro MetroMix® 306 planting mixture, which typically has a pH of 6.0 to 6.8 and an organic matter content of about 30 percent, in plastic plug trays. Seedlings at the second or third leaf stage of growth were transplanted into 860 mL of mud contained in 32-oz. non-perforated plastic pots with a surface area of 86.59 cm^2 4 days prior to herbicide application. The paddy was created by filling the headspace of the pots with 2.5 to 3 cm of water. When required to ensure good germination and healthy plants, a fungicide treatment and/or other chemical or physical treatment was applied. The plants were grown for 4-22 days in a greenhouse with an approximate 14 h photoperiod which was maintained at about 29′C during the day and 26° C. during the night. Nutrients were added as Osmocote® (19:6:12, N:P:K+minor nutrients) at 2 g per 16-oz. pot and 4 g per 32-oz. pot. Water was added on a regular basis to maintain the paddy flood, and supplemental lighting was provided with overhead metal halide 1000-Watt lamps as necessary. The plants were employed for testing when they reached the first through fourth true leaf stage.
(§2) Treatments consisted of the acid or esters of 4-amino-3-chloro-5-fluoro-6-(4-chloro-2-fluoro-3-methoxy-phenyl)pyridine-2-carboxylic acid (compound A) each formulated as an SC and various herbicidal components alone and in combination. Forms of compound A were applied on an acid equivalent basis.
(§3) Other herbicidal components were applied on an active ingredient basis and included acetolactate synthase (ALS)-inhibiting herbicides (sulfonylurea chemical class), azimsulfuron formulated as Gulliver®, bensulfuron-methyl formulated as Londax® 60DF, cyclosulfamuron (technical grade materail), ethoxysulfuron formulated as Sunrice® 15 WDG, flucetosulfuron formulated as Sukedachi® 1KG G, imazosulfuron formulated as Brazzos®, metsulfuron-methyl formulated as Lorate®, nicosulfuron formulated as Accent®, orthosulfamuron formulated as Strada® WG, propyrisulfuron formulated as Zeta One®, and rimsulfuron formulated as Matrix® WG.
(§4) Treatment requirements for each compound or herbicidal component were calculated based upon the rates being tested, the concentration of active ingredient or acid equivalent in the formulation, an application volume of 2 mL per component per pot, and an application area of 86.59 cm^2 per pot.
(§5) For formulated compounds, a measured amount was placed in an individual 100 or 200 mL glass vial and was dissolved in a volume of 1.25% (v/v) Agri-Dex® crop oil concentrate to obtain application solutions.
For technical grade compounds, a weighed amount was placed in an individual 100 to 200 mL glass vial and was dissolved in a volume of acetone to obtain concentrated stock solutions. […] The concentrated stock solutions obtained were diluted with an equivalent volume of an aqueous mixture containing 2.5% (v/v) crop oil concentrate so that the final application solutions contained 1.25% (v/v) crop oil concentrate.
Applications were made by injecting with a pipetter appropriate amounts of the application solutions, individually and sequentially, into the aqueous layer of the paddy. Control plants were treated in the same manner with the solvent blank. Applications were made so that all treated plant material received the same concentrations of acetone and crop oil concentrate. […]

[2] = system: ECHCG (Echinochloa crus-galli, barnyardgrass); experiment: as above; assay type: in vivo, Echinochloa crus-galli (L.) Beauv.
Method: as §1, §2, §3, §4, §5
For technical grade compounds, a weighed amount was placed in an individual 100 to 200 mL glass vial and was dissolved in a volume of acetone to obtain concentrated stock solutions. […]

[3] = system: SIDSP (Sida spinosa, prickly sida); experiment: Post-emergence herbicidal activity of mixtures in forage crops, greenhouse (Example IV); assay type: in vivo, Sida spinosa L.; settings: Table 58 (forage), foliar-applied, after approximately 21 days
Method: Seeds or root cuttings of the desired test plant species were planted in Sun Gro MetroMix® 306 planting mixture, which typically has a pH of 6.0 to 6.8 and an organic matter content of about 30 percent, in plastic pots with a surface area of 126.6 square centimeters (cm^2). When required to ensure good germination and healthy plants, a fungicide treatment and/or other chemical or physical treatment was applied. The plants were grown for 14-60 days in a greenhouse with an approximate 14 hour photoperiod which was maintained at approximately 28° C. during the day and 24° C. during the night. Nutrients and water were added on a regular basis and supplemental lighting was provided with overhead metal halide 1000-Watt lamps as necessary. The plants were employed for testing when they reached the BBCH13 to BBCH23 leaf stage.
Treatments consisted of the benzyl ester of 4-amino-3-chloro-5-fluoro-6-(4-chloro-2-fluoro-3-methoxy-phenyl)pyridine-2-carboxylic acid (Compound A), formulated as a SC, and a second herbicide alone and in combination.
A measured aliquot of Compound A was placed in 25 milliliter (mL) glass vial and diluted in a volume of 1.25% (v/v) Agri-dex crop oil concentrated to obtain stock solutions. Compound requirements are based upon a 12 mL application volume at a rate of 187 liters per hectare (L/ha). Spray solutions of the second cereal herbicide and experimental compound mixtures were prepared by adding the stock solutions to the appropriate amount of dilution solution to form 12 mL spray solution with active ingredients in two- and three-way combinations. […]
The treated plants and control plants were placed in a greenhouse as described above and watered by sub-irrigation to prevent wash-off of the test compounds. After approximately 21 days, the condition of the test plants, as compared with that of the control plants, was determined visually and scored on a scale of 0 to 100 percent where 0 corresponds to no injury and 100 corresponds to complete kill. […]

## COc1c(Cl)ccc(-c2nc(C(=O)OCc3ccccc3)c(Cl)c(N)c2F)c1F [Compound A Benzyl Ester]
[1]; Table 48, 8 gae/ha alone
  Visual Weed Control (%) - 21 DAA FIMMI Obs: 15%
[1]; Table 48, 16 gae/ha alone
  Visual Weed Control (%) - 21 DAA FIMMI Obs: 65%
[1]; Table 48, 32 gae/ha alone
  Visual Weed Control (%) - 21 DAA FIMMI Obs: 75%
[2]; Table 50, 4.38 gae/ha alone
  Visual Weed Control (%) - 20 DAA ECHCG Obs: 15%
[2]; Table 50, 8.75 gae/ha alone
  Visual Weed Control (%) - 20 DAA ECHCG Obs: 20%
[2]; Table 50, 17.5 gae/ha alone
  Visual Weed Control (%) - 20 DAA ECHCG Obs: 40%
[3]; 2.2 gai/ha alone
  Weed Control SIDSP Obs: 77%
[3]; 4.4 gai/ha alone
  Weed Control SIDSP Obs: 85%
